# Values quoted from earlier work as cited in US20150306111A1 (priority 2012, published 2015).
# Entries after “also recorded” stand apart in the source; their conditions may differ. Where two headings read alike, the source gives them in different places.
# Legend:
# [1] = test system: asthma patients with seasonal allergic rhinitis and nasal congestion; conditions: daily dose of 5 mg, 331 patients
smiles,measurement,setting,value
Clc1ccc2c(c1)CCc1cccnc1C2=C1CCNCC1 [desloratadine],Solubility in ethyl alcohol,ethyl alcohol,very soluble in ethyl alcohol
same,Solubility in propylene glycol,propylene glycol,moderately soluble in propylene glycol
same,Solubility in water,,practically insoluble in water; also recorded: low solubility in water
same,Solubility in water,listed as Desloratadine,poorly soluble in water
same,Effect on symptoms compared with placebo,[1],"effective in reducing overall symptoms, the symptoms of asthma and the symptoms of nasal congestion"
